Experimental data from patent US6642238B2, “Oxazolidinone thioamides with piperazine amide substituents” (Pharmacia and Upjohn Company, priority 2000, dated 2003).
In brackets after ≈: the same amount, converted by molar mass.

Assays:
[1] = tested on: Staphylococcus aureus (SAUR 9213); assay: MIC by agar dilution, SAUR 9213; assay type: cell-based; settings: Minimum Inhibitory Concentration, strain SAUR 9213; for MIC: Staphylococcus aureus
Description: (§1) The oxazolidinone antibacterial agents of this invention have useful activity against a variety of organisms. The in vitro activity of compounds of this invention can be assessed by standard testing procedures such as the determination of minimum inhibitory concentration (MIC) by agar dilution as described in “Approved Standard. Methods for Dilution Antimicrobial Susceptibility Tests for Bacteria That Grow Aerobically”, 3rd. ed., published 1993 by the National Committee for Clinical Laboratory Standards, Villanova, Pa., USA. The activity of compounds of this invention against Staphylococcus aureus, Staphylococcus epidermidis, Streptococcus pneumoniae, Streptococcus pyogens, Enterococcus faecalis, Moraxella catarrhalis and H. influenzae is shown in Table 1.

[2] = tested on: Staphylococcus epidermidis (SEPI 30593); assay: MIC by agar dilution, SEPI 30593; assay type: cell-based; settings: Minimum Inhibitory Concentration, strain SEPI 30593; for MIC: Staphylococcus epidermidis
Description: as §1

[3] = tested on: Enterococcus faecalis (EFAE 12712); assay: MIC by agar dilution, EFAE 12712; assay type: cell-based; settings: Minimum Inhibitory Concentration, strain EFAE 12712; for MIC: Enterococcus faecalis
Description: as §1

[4] = tested on: Streptococcus pneumoniae (SPNE 9912); assay: MIC by agar dilution, SPNE 9912; assay type: cell-based; settings: Minimum Inhibitory Concentration, strain SPNE 9912; for MIC: Streptococcus pneumoniae
Description: as §1

[5] = tested on: Streptococcus pyogens (SPYO 152); assay: MIC by agar dilution, SPYO 152; assay type: cell-based; settings: Minimum Inhibitory Concentration, strain SPYO 152; for MIC: Streptococcus
Description: as §1

[6] = tested on: H. influenzae (HINF 30063); assay: MIC by agar dilution, HINF 30063; assay type: cell-based; settings: Minimum Inhibitory Concentration, strain HINF 30063; for MIC: Haemophilus influenzae
Description: as §1

[7] = tested on: Enterococcus faecalis (EFAE 9217); assay: MIC by agar dilution, EFAE 9217; assay type: cell-based; settings: Minimum Inhibitory Concentration, strain EFAE 9217; for MIC: Enterococcus faecalis
Description: as §1

[8] = tested on: Moraxella catarrhalis (MCAT 30607); assay: MIC by agar dilution, MCAT 30607; assay type: cell-based; settings: Minimum Inhibitory Concentration, strain MCAT 30607; for MIC: Moraxella catarrhalis
Description: as §1

Row | Compound | MIC [1] | MIC [2] | MIC [3] | MIC [4] | MIC [5] | MIC [6] | MIC [7] | MIC [8] | melting point | SAUR 9213 MIC [1] | SEPI 30593 MIC [2] | EFAE 12712 MIC [3] | SPNE 9912 MIC [4] | SPYO 152 MIC [5] | HINF 30063 MIC [6] | EFAE 9217 MIC [7] | MCAT 30607 MIC [8]
1 | CCC(=S)NC[C@H]1CN(c2ccc(N3CCN(C(C)=S)CC3)c(F)c2)C(=O)O1 [EX 4, N-({(5S)-3-[4-(4-ethanethiolyl-1-piperazinyl)-3-fluorophenyl]2-oxo-1,3-oxazolidin-5-yl}methyl)propanethioamide] | 0.5 mg/L (≈ 1.18 µM) | 0.25 mg/L (≈ 0.589 µM) | 0.5 mg/L (≈ 1.18 µM) | 0.125 mg/L (≈ 0.294 µM) | 0.125 mg/L (≈ 0.294 µM) | 1 mg/L (≈ 2.36 µM) | 0.5 mg/L (≈ 1.18 µM) | 1 mg/L (≈ 2.36 µM) | 209 to 210 °C | – | – | – | – | – | – | – | –
2 | CCC(=S)NC[C@H]1CN(c2ccc(N3CCN(C#N)CC3)c(F)c2)C(=O)O1 [EX 5, N-({(5S)-3-[4-(4-cyano-1-piperazinyl)-3-fluorophenyl]-2-oxo-1,3-oxazolidin-5-yl}methyl)propanethioamide] | 0.25 mg/L (≈ 0.639 µM) | 0.25 mg/L (≈ 0.639 µM) | 0.25 mg/L (≈ 0.639 µM) | 0.125 mg/L (≈ 0.319 µM) | 0.125 mg/L (≈ 0.319 µM) | 2 mg/L (≈ 5.11 µM) | 0.25 mg/L (≈ 0.639 µM) | 1 mg/L (≈ 2.55 µM) | 182 to 184 °C | – | – | – | – | – | – | – | –
3 | CCC(=S)NC[C@H]1CN(c2ccc(N3CCN(C(=O)COC(=O)OCCOC)CC3)c(F)c2)C(=O)O1 [EX 7, N-({(5S)-3-(3-fuoro-4-{4-[2-[(2-methoxyethoxy)carbonyloxy]acetyl]-1-piperazinyl}phenyl)-2-oxo-1,3-oxazolidin-5-yl}methyl) propanethioamide] | 2 mg/L (≈ 3.8 µM) | 1 mg/L (≈ 1.9 µM) | 2 mg/L (≈ 3.8 µM) | 0.25 mg/L (≈ 0.475 µM) | 0.25 mg/L (≈ 0.475 µM) | 4 mg/L (≈ 7.6 µM) | 2 mg/L (≈ 3.8 µM) | 4 mg/L (≈ 7.6 µM) | 150 to 151 °C | – | – | – | – | – | – | – | –
4 | CCC(=S)NC[C@H]1CN(c2ccc(N3CCN(C(=O)[C@@H](O)COC)CC3)c(F)c2)C(=O)O1 [EX 8, N-[((5S)-3-{3-fluoro-4-[4-((2S)-2-hydroxy-3-methoxypropanoyl)-1-piperazinyl]phenyl}-2-oxo-1,3-oxazolidin-5-yl)methyl]propanethioamide] | 2 mg/L (≈ 4.27 µM) | 1 mg/L (≈ 2.13 µM) | 2 mg/L (≈ 4.27 µM) | 0.5 mg/L (≈ 1.07 µM) | 0.5 mg/L (≈ 1.07 µM) | 16 mg/L (≈ 34.1 µM) | 1 mg/L (≈ 2.13 µM) | 2 mg/L (≈ 4.27 µM) | 190 to 191 °C (dec.) | – | – | – | – | – | – | – | –
5 | CCC(=S)NC[C@H]1CN(c2ccc(N3CCN(C(=O)C(C)=O)CC3)c(F)c2)C(=O)O1 [EX 12, N-({(5S)-3-[3-fluoro-4-(4-pyruvoyl-1-piperazinyl)phenyl]-2-oxo-1,3-oxazolidin-5-yl}methyl)propanethioamide] | 2 mg/L (≈ 4.58 µM) | 1 mg/L (≈ 2.29 µM) | 1 mg/L (≈ 2.29 µM) | 0.5 mg/L (≈ 1.15 µM) | 0.5 mg/L (≈ 1.15 µM) | 8 mg/L (≈ 18.3 µM) | 1 mg/L (≈ 2.29 µM) | 2 mg/L (≈ 4.58 µM) | 173 to 175 °C (dec.) | – | – | – | – | – | – | – | –
6 | CCC(=S)NC[C@H]1CN(c2ccc(N3CCN(C(=O)C4(O)CC4)CC3)c(F)c2)C(=O)O1 [EX 14, N-{[(5S)-3-(3-fluoro-4-{4-[(1-hydroxycyclopropyl)carbonyl]-1-piperazinyl}phenyl)-2-oxo-1,3-oxazolidin-5-yl]methyl}propanethioamide] | 4 mg/L (≈ 8.88 µM) | 1 mg/L (≈ 2.22 µM) | 2 mg/L (≈ 4.44 µM) | 0.5 mg/L (≈ 1.11 µM) | 1 mg/L (≈ 2.22 µM) | 32 mg/L (≈ 71 µM) | 1 mg/L (≈ 2.22 µM) | 2 mg/L (≈ 4.44 µM) | 185 to 186 °C (dec.) | – | – | – | – | – | – | – | –
7 | CCC(=S)NC[C@H]1CN(c2ccc(N3CCN(C(=O)COc4ccccc4)CC3)c(F)c2)C(=O)O1 [EX 15, N-[((5S)-3-{3-fluoro-4-[4-(2-phenoxyacetyl)-1-piperazinyl]phenyl}-2-oxo-1,3-oxazolidin-5-yl)methyl]propanethioamide] | 2 mg/L (≈ 4 µM) | 0.5 mg/L (≈ 0.999 µM) | 1 mg/L (≈ 2 µM) | 0.25 mg/L (≈ 0.499 µM) | 0.5 mg/L (≈ 0.999 µM) | 32 mg/L (≈ 63.9 µM) | 0.5 mg/L (≈ 0.999 µM) | 2 mg/L (≈ 4 µM) | 171 to 172 °C | – | – | – | – | – | – | – | –
8 | CCC(=S)NC[C@H]1CN(c2ccc(N3CCN(C(=O)[C@@H](O)CO)CC3)c(F)c2)C(=O)O1 [EX 16, N-({(5S)-3-[3-fluoro-4-[4-((2S)-2,3-dihydroxypropanoyl)-1-piperazinyl]phenyl]-2-oxo-1,3-oxazolidin-5-yl}methyl)propanethioamide] | 4 mg/L (≈ 8.8 µM) | 0.5 mg/L (≈ 1.1 µM) | 1 mg/L (≈ 2.2 µM) | 0.5 mg/L (≈ 1.1 µM) | 0.5 mg/L (≈ 1.1 µM) | 8 mg/L (≈ 17.6 µM) | 0.5 mg/L (≈ 1.1 µM) | 2 mg/L (≈ 4.4 µM) | 142 °C (dec.) | – | – | – | – | – | – | – | –
9 | CCC(=S)NC[C@H]1CN(c2ccc(N3CCN(C(=O)[C@H](O)CO)CC3)c(F)c2)C(=O)O1 [EX 17, N-({(5S)-3-[3-fluoro-4-[4-((2R)-2,3-dihydroxypropanoyl)-1-piperazinyl]phenyl]-2-oxo-1,3-oxazolidin-5-yl}methyl)propanethioamide] | 4 mg/L (≈ 8.8 µM) | 0.5 mg/L (≈ 1.1 µM) | 1 mg/L (≈ 2.2 µM) | 0.25 mg/L (≈ 0.55 µM) | 0.5 mg/L (≈ 1.1 µM) | 8 mg/L (≈ 17.6 µM) | 0.5 mg/L (≈ 1.1 µM) | 2 mg/L (≈ 4.4 µM) | 132 °C (dec.) | – | – | – | – | – | – | – | –
10 | CCC(=S)NC[C@H]1CN(c2ccc(N3CCN(C(=O)[C@@H](O)Cc4ccccc4)CC3)c(F)c2)C(=O)O1 [EX 19, N-[((5S)-3-{3-fluoro-4-[4-((2S)-2-hydroxy-3-phenylpropanoyl)-1-piperazinyl]phenyl}-2-oxo-1,3-oxazolidin-5-yl)methyl]propanethioamide] | 2 mg/L (≈ 3.89 µM) | 2 mg/L (≈ 3.89 µM) | 2 mg/L (≈ 3.89 µM) | < 0.5 mg/L | 1 mg/L (≈ 1.94 µM) | > 64 mg/L | 2 mg/L (≈ 3.89 µM) | 8 mg/L (≈ 15.5 µM) | 174 to 175 °C | – | – | – | – | – | – | – | –
11 | CCC(=S)NC[C@H]1CN(c2ccc(N3CCN(C(=O)[C@H](O)c4ccccc4)CC3)c(F)c2)C(=O)O1 [EX 21, N-[((5S)-3-{3-fluoro-4-[4-((2R)-2-hydroxy-2-phenylacetyl)-1-piperazinyl]phenyl}-2-oxo-1,3-oxazolidin-5-yl)methyl]propanethioamide] | 4 mg/L (≈ 7.99 µM) | 1 mg/L (≈ 2 µM) | 2 mg/L (≈ 4 µM) | 1 mg/L (≈ 2 µM) | 2 mg/L (≈ 4 µM) | 64 mg/L (≈ 128 µM) | 2 mg/L (≈ 4 µM) | 4 mg/L (≈ 7.99 µM) | – | – | – | – | – | – | – | – | –
12 | CCC(=S)NC[C@H]1CN(c2ccc(N3CCN(C(=O)[C@@H](OC(C)=O)c4ccccc4)CC3)c(F)c2)C(=O)O1 [EX 22, N-[((5S)-3-{3-fluoro-4-[4-((2S)-2-acetoxy-2-phenylacetyl)-1-piperazinyl]phenyl}-2-oxo-1,3-oxazolidin-5-yl)methyl]propanethioamide] | 8 mg/L (≈ 14.7 µM) | 4 mg/L (≈ 7.37 µM) | 4 mg/L (≈ 7.37 µM) | 2 mg/L (≈ 3.69 µM) | 4 mg/L (≈ 7.37 µM) | > 64 mg/L | 4 mg/L (≈ 7.37 µM) | 8 mg/L (≈ 14.7 µM) | – | – | – | – | – | – | – | – | –
13 | N{[(5S)-3-(3-fluoro-4-{4-[2-(methylsulfinyl)acetyl]-1-piperazinyl}phenyl)-2-oxo-1,3-oxazolidin-5-yl]methyl }propanethioamide [EX 1] | – | – | – | – | – | – | – | – | – | 4 mg/L | 1 mg/L | 2 mg/L | .05 mg/L | 2 mg/L | 8 mg/L | 1 mg/L | 8 mg/L
